Measurements published in US20250195513A1, “DEGRADATION OF IRAK4 BY CONJUGATION OF IRAK4 INHIBITORS WITH E3 LIGASE LIGAND AND METHODS OF USE” (BeiGene, Ltd., priority 2022, published 2025).
Like-named read-outs stand apart in the source and are kept apart here.

Biological target: T1, IRAK4 (Homo sapiens, UniProt Q9NWZ3)
T1 construct: endogenous in cells; host or cells: Karpas299
T1 sequence (Q9NWZ3 1-460): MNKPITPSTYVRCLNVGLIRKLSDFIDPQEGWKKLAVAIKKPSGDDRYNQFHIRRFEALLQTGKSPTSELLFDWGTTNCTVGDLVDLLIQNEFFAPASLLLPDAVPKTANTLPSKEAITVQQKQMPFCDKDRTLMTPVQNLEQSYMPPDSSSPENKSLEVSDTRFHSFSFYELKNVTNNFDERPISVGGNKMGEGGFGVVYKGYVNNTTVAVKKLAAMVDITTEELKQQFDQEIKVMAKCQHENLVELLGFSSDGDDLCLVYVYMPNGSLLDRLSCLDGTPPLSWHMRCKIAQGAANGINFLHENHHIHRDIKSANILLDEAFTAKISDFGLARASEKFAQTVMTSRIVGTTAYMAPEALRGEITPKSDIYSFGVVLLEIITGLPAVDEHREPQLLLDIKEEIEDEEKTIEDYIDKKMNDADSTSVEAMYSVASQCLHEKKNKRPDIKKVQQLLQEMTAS
Assay: IRAK4 Degradation Assay (Karpas299, HTRF/TR-FRET)
Assay type: cell-based
Method in brief: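 Karpas299 cells at 0.2 million per well were exposed to serially diluted compounds for 24 h or 5 h, then lysed. IRAK4 remaining in lysates was quantified by HTRF (665/620 nm) after overnight antibody incubation at room temperature. Percent degradation was fitted to a four-parameter curve to give IC50 (DC50).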

[1] = Karpas-299 cells, 5 h treatment, maximum percentage of degradation, read-out: IRAK4 in Karpas-299 (5 h) Dmax (%)
[2] = Karpas-299 cells, 5 h treatment, read-out: IRAK4 in Karpas-299 (5 h) DC50
[3] = Karpas-299 cells, 24 h treatment, maximum percentage of degradation, read-out: IRAK4 in Karpas-299 (24 h) Dmax (%)
[4] = Karpas-299 cells, 24 h treatment, read-out: IRAK4 in Karpas-299 (24 h) DC50

SMILES | Dmax [1] [%] | DC50 [2] [nM] | Dmax [3] [%] | DC50 [4] [nM] | DC50 (Degradation (Karpas-299), comparison table, Linker Type A, read-out: Compound (Linker Type A) DC50) [nM] | Dmax (Degradation (Karpas-299), comparison table, Linker Type A, read-out: Compound (Linker Type A) Dmax (%)) [%]
O=C1CCN(c2c(F)cc(N3CC(C(=O)N4CCN([C@H]5CC[C@H](n6cc(NC(=O)c7cnn(-c8ccnc(NCC9CC9)c8)n7)c(C(F)F)n6)CC5)CC4)C3)cc2F)C(=O)N1 [Example 61, 2-(2-((cyclopropylmethyl)amino)pyridin-4-yl)-N-(3-(difluoromethyl)-1-((1r,4r)-4-(4-(1-(4-(2,4-dioxotetrahydropyrimidin-1(2H)-yl)-3,5-difluorophenyl)azetidine-3-carbonyl)piperazin-1-yl)cyclohexyl)-1H-pyrazol-4-yl)-2H-1,2,3-triazole-4-carboxamide] | 86 | 24 | 96 | 5 | – | –
[2H]C([2H])([2H])Oc1cc2nn([C@H]3CC[C@H](N4CCN(C(=O)[C@@H]5CCN(c6cc(F)c([C@H]7CCC(=O)NC7=O)c(F)c6)C5)CC4)CC3)cc2cc1NC(=O)c1cccc(C(F)(F)F)n1 [Example 169, N-(2-((1R,4r)-4-(4-((R)-1-(4-((R)-2,6-dioxopiperidin-3-yl)-3,5-difluorophenyl)pyrrolidine-3-carbonyl)piperazin-1-yl)cyclohexyl)-6-(methoxy-d3)-2H-indazol-5-yl)-6-(trifluoromethyl)picolinamide] | 95 | 17 | 99 | 4.3 | – | –
COc1cc2nn([C@H]3CC[C@H](N4CCN(C(=O)[C@@H]5CCN(c6cc(F)c(N7CCC(=O)NC7=O)c(F)c6)C5)CC4)CC3)cc2cc1NC(=O)c1cccc(C(F)(F)F)n1 [Example 177, N-(2-((1R,4r)-4-(4-((R)-1-(4-(2,4-dioxotetrahydropyrimidin-1(2H)-yl)-3,5-difluorophenyl)pyrrolidine-3-carbonyl)piperazin-1-yl)cyclohexyl)-6-methoxy-2H-indazol-5-yl)-6-(trifluoromethyl)picolinamide] | 94 | 44 | 97 | 7.8 | – | –
CC(C)(O)c1cc2nc(C3CCN(C4CCN(C(=O)[C@@H]5CCN(c6cc(F)c([C@H]7CCC(=O)NC7=O)c(F)c6)C5)CC4)CC3)cn2cc1NC(=O)c1cccc(C(F)(F)F)n1 [Example 127, N-(2-(1′-((R)-1-(4-((R)-2,6-dioxopiperidin-3-yl)-3,5-difluorophenyl)pyrrolidine-3-carbonyl)-[1,4′-bipiperidin]-4-yl)-7-(2-hydroxypropan-2-yl)imidazo[1,2-a]pyridin-6-yl)-6-(trifluoromethyl)picolinamide] | 94 | 12 | 102 | 1.3 | – | –
O=C1CCC(c2ccc(N3CC(C(=O)N4CCN([C@H]5CC[C@H](n6cc(NC(=O)c7coc(-c8ccnc(NCC(F)(F)F)c8)n7)c(C(F)F)n6)CC5)CC4)C3)cc2)C(=O)N1 (some centres unmarked) [Example 175, N-(3-(difluoromethyl)-1-((1r,4r)-4-(4-(1-(4-(2,6-dioxopiperidin-3-yl)phenyl)azetidine-3-carbonyl)piperazin-1-yl)cyclohexyl)-1H-pyrazol-4-yl)-2-(2-((2,2,2-trifluoroethyl)amino)pyridin-4-yl)oxazole-4-carboxamide] | 88 | 12 | 100 | 1.7 | – | –
CC(C)(O)c1cc2nn(C3CCN([C@@H]4CCN(C(=O)C5CN(c6cc(F)c([C@H]7CCC(=O)NC7=O)c(F)c6)C5)CC4(F)F)CC3)cc2cc1NC(=O)c1ccc2cc(C#N)cnn12 [Example 288, 3-cyano-N-(2-((R)-1′-(1-(4-((R)-2,6-dioxopiperidin-3-yl)-3,5-difluorophenyl)azetidine-3-carbonyl)-3′,3′-difluoro-[1,4′-bipiperidin]-4-yl)-6-(2-hydroxypropan-2-yl)-2H-indazol-5-yl)pyrrolo[1,2-b]pyridazine-7-carboxamide] | – | – | 96 | 2.3 | – | –

Continued, values first:

Dmax [1] [%] | DC50 [2] [nM] | Dmax [3] [%] | DC50 [4] [nM] | DC50 (Degradation (Karpas-299), comparison table, Linker Type A, read-out: Compound (Linker Type A) DC50) [nM] | Dmax (Degradation (Karpas-299), comparison table, Linker Type A, read-out: Compound (Linker Type A) Dmax (%)) [%] | SMILES
89 | 8.2 | 96 | 5.8 | – | – | Cc1cc(-c2nc(C(=O)Nc3cn(-c4ccc(N5CCN(C(=O)C6CN(c7ccc(N8CCC(=O)NC8=O)cc7)C6)CC5)nc4)nc3C(N)=O)co2)ccn1 [Example 31, N-(3-carbamoyl-1-(6-(4-(1-(4-(2,4-dioxotetrahydropyrimidin-1(2H)-yl)phenyl)azetidine-3-carbonyl)piperazin-1-yl)pyridin-3-yl)-1H-pyrazol-4-yl)-2-(2-methylpyridin-4-yl)oxazole-4-carboxamide]
– | – | 96 | 0.9 | – | – | CC(C)(O)c1cc2nn([C@H]3CC[C@H](N4CCN(C5CCN(c6cc(F)c([C@H]7CCC(=O)NC7=O)c(F)c6)CC5)CC4)CC3)cc2cc1NC(=O)c1coc2cccnc12 [Example 405, N-(2-((1r,4r)-4-(4-(1-(4-((R)-2,6-dioxopiperidin-3-yl)-3,5-difluorophenyl)piperidin-4-yl)piperazin-1-yl)cyclohexyl)-6-(2-hydroxypropan-2-yl)-2H-indazol-5-yl)furo[3,2-b]pyridine-3-carboxamide]
– | – | 46 | > 10000 | > 10000 | 46 | O=C1CC[C@H](c2c(F)cc(CCN3CCN(C[C@H]4CC[C@H](n5cc(NC(=O)c6coc(-c7ccnc(NCC(F)(F)F)c7)n6)c(C(F)F)n5)CC4)CC3)cc2F)C(=O)N1 [Example 1, N-(3-(difluoromethyl)-1-((1R,4r)-4-((4-(4-((R)-2,6-dioxopiperidin-3-yl)-3,5-difluorophenethyl)piperazin-1-yl)methyl)cyclohexyl)-1H-pyrazol-4-yl)-2-(2-((2,2,2-trifluoroethyl)amino)pyridin-4-yl)oxazole-4-carboxamide]
– | – | 95 | 6 | – | – | O=C1CCN(c2ccc(N3CC[C@@H](C(=O)N4CCN([C@H]5CC[C@H](n6cc(NC(=O)c7coc(-c8ccnc(NCC9CC9)c8)n7)c(C(F)F)n6)CC5)CC4)C3)cc2)C(=O)N1 [Example 23, 2-(2-((cyclopropylmethyl)amino)pyridin-4-yl)-N-(3-(difluoromethyl)-1-((1R,4r)-4-(4-((R)-1-(4-(2,4-dioxotetrahydropyrimidin-1(2H)-yl)phenyl)pyrrolidine-3-carbonyl)piperazin-1-yl)cyclohexyl)-1H-pyrazol-4-yl)oxazole-4-carboxamide]
– | – | 94 | 3.2 | – | – | N#Cc1cnn2c(C(=O)Nc3cc4cn([C@H]5CC[C@H](N6CCN(CCc7cc(F)c([C@H]8CCC(=O)NC8=O)c(F)c7)CC6)CC5)nc4c4c3OC(F)(F)O4)ccc2c1 [Example 386, 3-cyano-N-(2-((1R,4r)-4-(4-(4-((R)-2,6-dioxopiperidin-3-yl)-3,5-difluorophenethyl)piperazin-1-yl)cyclohexyl)-7,7-difluoro-2H-[1,3]dioxolo[4,5-g]indazol-5-yl)pyrrolo[1,2-b]pyridazine-7-carboxamide]
– | – | 78 | 4.2 | – | – | CC(C)(O)c1cc2nn(C3CCN(C4CCN(C(=O)C5CN(c6cc(F)c([C@H]7CCC(=O)NC7=O)c(F)c6)C5)CC4)CC3)cc2cc1NC(=O)c1cccn(C2CC2)c1=O [Example 117, (R)-1-cyclopropyl-N-(2-(1′-(1-(4-(2,6-dioxopiperidin-3-yl)-3,5-difluorophenyl)azetidine-3-carbonyl)-[1,4′-bipiperidin]-4-yl)-6-(2-hydroxypropan-2-yl)-2H-indazol-5-yl)-2-oxo-1,2-dihydropyridine-3-carboxamide]
